Measured values as given in patent US20100093018A1, “CELLS […] PROTEINS AND ASSAYS USING SUCH CELLS” (ACHILLION PHARMACEUTICALS, INC., priority 2007, published 2010).

How the values were obtained:
NNI-1^R (M414T) = test: Susceptibility of NNI-1 resistant replicon cell line; format: cell-based, hepatitis C virus; details: NNI-1^R (M414T) versus Huh-9-13
NM107^R (S282T) = test: Susceptibility of NM107 resistant replicon cell line; format: cell-based, hepatitis C virus; details: NM107^R (S282T) versus Huh-9-13
HCV replicon = HCV replicon assay (Example 1); format: cell-based; details: Hepatitis C virus; Huh-7 cells expressing the HCV replicon
Experimental: The ability to inhibit viral replication of Hepatitis C can be tested using the HCV replicon expressed in cultured cells in which an HCV replicon construct has been incorporated. The HCV replicon system was described by Bartenschlager, et. al (Science, 285, pp. 110-113, 1999). The replicon system is predictive of in vivo activity against HCV; compounds that are active in humans uniformly evidence activity in the replicon assay.
In this assay HCV replicon containing cells are treated with different concentrations of the test compound to ascertain the ability of the test compound to suppress replication of the HCV replicon. As a positive control, HCV replicon-containing cells are treated with different concentrations of interferon alpha, a known inhibitor of HCV replication. The replicon assay system includes Neomycin Phosphotransferase (NPT) as a component of the replicon itself as a marker allowing convenient detection of the transcription of replicon gene products in the host cell. Cells in which the HCV replicon is actively replicating have high levels of NPT; the level of NPT is proportional to HCV replication. […] The NPT level of each sample may be measured using a captured ELISA. […]
HCV replicon-containing cells are examined under a microscope to ensure that cells growing well. […] The cells are counted. […]

VX-950^R (A156T) = test: Susceptibility of VX-950 resistant replicon cell line; format: cell-based, hepatitis C virus; details: VX-950^R (A156T) versus Huh-9-13
[1] = system: parental replicon cellular line, Huh-9-13; test: Susceptibility of parental replicon cellular line; format: cell-based, hepatitis C virus
[2] = system: Luc/NS3-4A^R(C16) replicon; test: Fragment-cloned luciferase replicon susceptibility, C16 revertant; format: cell-based, hepatitis C virus
Excerpt: A third approach, fragment cloning, was used to reinforce the role of the C16S mutation and to exclude the role of other nonconsensus mutations in conferring resistant to ACH-806. A ˜3 kb fragment covering the coding region of NS3, NS4A, and part of NS4B was amplified by RT-PCR from total RNA isolated from ACH-806 resistant clone #28. The PCR product was cloned into the nonselectable replicon containing a luciferase reporter gene. Replicon RNA molecules were made from eight individual clones and were transfected into Huh-7 cells to determine the replication capacity by luciferase activity. From the eight clones, two were able to replicate efficiently and sequencing of the entire cloned fragment in these two clones confirmed the existence of C16S mutation in addition to other nonconsensus mutations. The serine at the amino acid residue of NS3 in one of these two clones was then converted back to cysteine using site-directed mutagenesis, leaving other nonconsensus mutations unchanged. The replication capacity of this resulting replicon [Luc/N3-4AR(C16)] was 95% that of its parent [Luc/N3-4AR(S16)] determined as previously described. After transfection into Huh-7 cells, the susceptibility of both replicons was compared. The reversion of serine back to cysteine at amino acid residue 16 of NS3 increased the susceptibility of the replicon to ACH-806 about 10 fold and maintained the susceptibility to other classes of HCV inhibitors (Table 3). Similar results were also obtained with a fragment containing NS3, 4A and part of 4B derived from a resistant cell line carrying A39V mutation (data not shown).

replicase complex = target: T1, replicase complex (Hepatitis C virus genotype 1b, UniProt Q9WMX2); test: Replicase activity in treated replicon cells (FIG. 3); format: cell-based; details: 16 hour treatment of replicon cells, concentrations as low as 50 μM
T1 construct: expressed in transfected cells; host or cells: HCV replicon cells (Huh-7 derived)
T1 sequence (Q9WMX2 1658-1711 limits assumed): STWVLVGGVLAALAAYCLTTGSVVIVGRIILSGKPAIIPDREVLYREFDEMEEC
Excerpt: FIG. 3. ACH-806 is a potent inhibitor of functional replicase complex production.

**Q.** Which results are given for `CCCCCOc1ccc(NC(=S)NC(=O)c2cccnc2)cc1C(F)(F)F` [ACH-806, 1-nicotinoyl-3-(4-(pentyloxy)-3-(trifluoromethyl)phenyl)thiourea]?
**A.** Fold change in EC50 (NNI-1^R (M414T)): 0.9; Fold change in EC50 (NM107^R (S282T)): 0.5; EC50 (HCV replicon): 14 nM; Fold change in EC50 (VX-950^R (A156T)): 0.6; EC50 ([1]; Hepatitis C virus, read-out: EC50 ± SD): 40 nM; Fold change in EC50 ([1]; Parental cell line (Table 1)): 1.0; Fold change in EC50 ([1]; Parental cell line (Table 4)): 1.0; increase of susceptibility on reversion of serine to cysteine at residue 16 of NS3 ([2]; C16 revertant versus S16 replicon): about 10 fold; EC50 ([2]; Hepatitis C virus): 20 nM; EC90 ([2]; Hepatitis C virus): 240 ± 10 nM; reduction of replicase activity (replicase complex): more than 50%
